Measured values as given in US20260109678A1, “SUBSTITUTED PHENOTHIAZINES AS FERROPTOSIS INHIBITORS” (Universiteit Antwerpen, priority 2022, published 2026).
Converted amounts (≈) assume the structure as drawn. Where a name gives a salt, the structure may show the parent alone.

Tests used:
[1] = Kinetic solubility (turbidimetric method); format: physicochemical; conditions: aqueous buffer, kinetic from dmso stock, PBS buffer pH 7.4, 2 hours at 37° C., read-out: Kin. solubility
[2] = Fluorescence-enabled inhibited autoxidation (FENIX) assay; format: biochemical; conditions: RTA 2 μM, liposomes 1 mM; for Logkinh: FENIX assay; for kinh (10^4 M^−1s^−1) ± SD: inhibition rate constant, STY-BODIPY 1 μM, DTUN initiator, 37° C.
Description: Unless otherwise stated, laboratory reagent grade solvents were used. Reagents were obtained from various commercial sources and were used without any prior purification. L-α-phosphatidylcholine (Egg, Chicken), powder was purchased from Merck Life Science B.V.. DTUN and STY-BODIPY were synthesized according to methods described in Shah et al. (2019) Cell Chem. Biol. 26, 1594-1607. Fluorescence was measured using the UV/vis spectrophotometer Synergy MX, Biotek with Gen5.
In order to quantify radical trapping antioxidant activity in phospholipid bilayers to a clear bottom black-walled 96-well plate for fluorescence-base assays (Invitrogen by Thermo Fisher Scientific) was added 250 μL of a solution containing liposomes (1 mM), styrene-conjugated BODIPY (STY-BODIPY, 1 μM), and the respective radical trapping antioxidant (RTA, 2 μM). The solutions were made in larger volumes in Eppendorfs, pre-mixed and 250 μL aliquot was transferred to each well. The plate was incubated for 10 minutes at 37° C. in the BioTek SynergyMx plate reader, followed by a fast-mixing protocol for 5 minutes. The plate was ejected from the plate reader and autoxidation was initiated by the addition of a 50 μL aliquot of (E)-1,2-bis((2-methyldecan-2-yl)oxy)diazene (DTUN, 0.2 mM in EtOH/PBS 3/47, v/v), followed by another mixing protocol for 5 minutes. Data were acquired by excitation probes at 488 nm and emission was measured at 518 nm (read intervals 1.0 min). Kinetic read parameters: (i) optic position: bottom, (ii) gain: 80, (iii) bandwidth: 9.0. The results of the FENIX assay are presented in Table 2 as inhibition rate constants (kinh), logkinh and stoichiometries (n) of tested compounds.

SMILES | solubility at 2 h [1] [µM] | Logkinh [2] | kinh (10^4 M^−1s^−1) ± SD [2]
O=Cc1ccc2c(c1)Sc1ccccc1N2 [CPD-037, 10H-phenothiazine-3-carbaldehyde] | 12.5 to 50 (≈ 2.84 to 11.4 µg/mL) | – | –
O=C(NCCN1CCOCC1)c1cc(NC2CCCCC2)c2c(c1)Sc1ccccc1N2 [CPD-015, 1-(Cyclohexylamino)-N-(2-morpholinoethyl)-10H-phenothiazine-3-carboxamide] | – | 1.88 ± 0.15 | 6.28 ± 0.35 10^4 M^−1s^−1
c1ccc(CNc2cccc3c2Nc2ccccc2S3)cc1 [CPD-002, N-benzyl-10H-phenothiazin-1-amine] | – | 2.11 ± 0.07 | 3.04 ± 0.05 10^4 M^−1s^−1
O=C(c1ccc2c(c1)Sc1ccccc1N2)N1CCOCC1 [CPD-031, Morpholino(10H-phenothiazin-3-yl)methanone] | – | 2.11 ± 0.04 | 1.15 ± 0.01 10^4 M^−1s^−1
c1ccc2c(c1)Nc1ccc(CNCCN3CCOCC3)cc1S2 [CPD-038] | – | 3.77 ± 0.16 | 1.03 ± 0.01 10^4 M^−1s^−1
Nc1cc(C(=O)NCCN2CCNCC2)cc2c1Nc1ccccc1S2 [CPD-010, 1-Amino-N-(2-(piperazin-1-yl)ethyl)-10H-phenothiazine-3-carboxamide tetrahydrochloride] | – | 1.80 ± 0.08 | 12.86 ± 0.90 10^4 M^−1s^−1
O=C(NCCN1CCOCC1)c1cc(NCc2ccccc2)c2c(c1)Sc1ccccc1N2 [CPD-013, 1-(Benzylamino)-N-(2-morpholinoethyl)-10H-phenothiazine-3-carboxamide] | – | 2.04 ± 0.01 | 2.00 ± 0.22 10^4 M^−1s^−1
